Reference: patent US20210393651A1, “TARGETING THE ONCOGENIC TRANSCRIPTION FACTOR STAT5 WITH MINERALOCORTICOID ANALOGUES” (DANA-FARBER CANCER INSTITUTE, INC., priority 2018, published 2021)

Columns and labels:
STAT5 [1] = test: STAT5 activity in hematopoietic cells; format: cell-based
MCR = test: MCR-dependent luciferase reporter in T47D cells; format: cell-based; settings: for activation of MCR, MCR-specific luciferase reporter: T47D cells (FIG. 2A)
Description: (§1) FIG. 2A-FIG. 2E is a series of bar graphs showing that the endogenous mineralocorticoid aldosterone inhibits STAT5 transcriptional function. FIG. 2A is a bar chart wherein T47D cells were transfected with an MCR-dependent luciferase reporter and a normalizing control, and normalized luciferase activity was determined after the indicated treatment. FIG. 2B is a bar chart wherein T47D cells transfected with an MCR-dependent luciferase reporter and a normalizing control were treated with the indicated dose of aldosterone, after which luciferase activity was determined. FIG. 2C is a bar chart wherein T47D-luc cells were pre-treated with the indicated concentration of aldosterone for 1 hour, then stimulated with prolactin (100 ng/ml) for 6 hours, after which luciferase activity was determined. FIG. 2D is a bar chart wherein T47D cells were pre-treated with vehicle control or aldosterone (0.01 μM) for 1 hour, after which prolactin (100 ng/ml) was added to induce STAT5 activation. RNA was harvested 1.5 hours later, and expression of STAT5 target genes was measured using quantitative RT-PCR and normalized to the expression of 18s RNA. FIG. 2E is a bar chart wherein T47D cells stably expressing a STAT5-dependent luciferase reporter gene were treated with 1 μM fludrocortisone at the indicated time points relative to prolactin stimulation. Luciferase activity was quantified by luminometry six hours following prolactin stimulation. Error bars represent mean±SD for triplicates.

STAT5 [2] = test: Dual luciferase assay, parental T47D cells transfected with NCAM-luc or B-luc; format: cell-based; settings: prolactin-induced
Description: (§2) FIG. 1A is a bar chart wherein reporter cell lines were treated with the indicated doses of fludrocortisone for two hours, after which cytokines were added to activate the appropriate transcription factor. Luciferase activity was quantified by luminometry six hours later. FIG. 1B is a bar chart wherein T47D cells were transfected with one of two luciferase constructs regulated by a STAT5-dependent promoter (NCAM-luc or B-luc) together with a normalizing control, and the effect of fludrocortisone on prolactin-induced gene expression was determined. Jak inhibitor 1 (JAKinhib; 1 μM) was used as a positive control. Error bars represent mean±SD for two independent experiments. FIG. 1C is a series of bar charts wherein the indicated breast cancer cell lines were pre-treated with vehicle (dimethylsulfoxide (DMSO)) or fludrocortisone (1 μM) for 1 hour, then left untreated or stimulated with prolactin (100 ng/ml) to induce STAT5 activation. RNA was harvested 1.5 hours later, and expression of the indicated STAT5 target genes was measured using quantitative reverse transcription polymerase chain reaction (RT-PCR) and normalized to the expression of 18s. Error bars represent mean±SD for triplicates. […]

STAT5 [3] = test: STAT5-dependent luciferase reporter in T47D cells (NCAM2-luc/T47D), prolactin-stimulated; format: cell-based
Description: (§3) FIG. 1A is a bar chart wherein reporter cell lines were treated with the indicated doses of fludrocortisone for two hours, after which cytokines were added to activate the appropriate transcription factor. Luciferase activity was quantified by luminometry six hours later. FIG. 1B is a bar chart wherein T47D cells were transfected with one of two luciferase constructs regulated by a STAT5-dependent promoter (NCAM-luc or B-luc) together with a normalizing control, and the effect of fludrocortisone on prolactin-induced gene expression was determined. Jak inhibitor 1 (JAKinhib; 1 μM) was used as a positive control. Error bars represent mean±SD for two independent experiments. FIG. 1C is a series of bar charts wherein the indicated breast cancer cell lines were pre-treated with vehicle (dimethylsulfoxide (DMSO)) or fludrocortisone (1 μM) for 1 hour, then left untreated or stimulated with prolactin (100 ng/ml) to induce STAT5 activation. RNA was harvested 1.5 hours later, and expression of the indicated STAT5 target genes was measured using quantitative reverse transcription polymerase chain reaction (RT-PCR) and normalized to the expression of 18s. Error bars represent mean±SD for triplicates.
as §1, with “FIG. 2D is a bar chart wherein T47D cells were pre-treated with vehicle control or aldosterone (0.01 μM) for 1 hour, after which prolactin (100 ng/ml) was added to induce STAT5 activation.” left out, “FIG. 2E is a bar chart wherein T47D cells stably expressing a STAT5-dependent luciferase reporter gene were treated with 1 μM fludrocortisone at the indicated time points relative to prolactin stimulation.” left out, “Error bars represent mean±SD for triplicates.” left out
T47D, ZR75 (American Type Culture Collection, Manassas Va.), and MDA-MB-468, were maintained in DMEM containing 10% FBS. […] STAT1, STAT3, STAT5 and NF-κB-dependent luciferase activities were measured in STAT-luc/2FTGH, STAT-luc/U3A, NCAM2-luc/T47D and NF-κB-luc/293 cells, respectively (Nelson et al., 2008 Blood 112, 5095-5102). Luciferase activity was quantified using the Bright-Glo Luciferase assay system (Promega, Madison, Wis.). […]

STAT1 = test: STAT1-dependent luciferase reporter (STAT-luc/2FTGH cells); format: cell-based; settings: concentrations up to 33 μM
Description: as §2, with “FIG. 1C is a series of bar charts wherein the indicated breast cancer cell lines were pre-treated with vehicle (dimethylsulfoxide (DMSO)) or fludrocortisone (1 μM) for 1 hour, then left untreated or stimulated with prolactin (100 ng/ml) to induce STAT5 activation.” left out, “18s.” for “18s. Error bars represent mean±SD for triplicates.”
(§4) T47D, ZR75 (American Type Culture Collection, Manassas Va.), and MDA-MB-468, were maintained in DMEM containing 10% FBS. […] STAT1, STAT3, STAT5 and NF-κB-dependent luciferase activities were measured in STAT-luc/2FTGH, STAT-luc/U3A, NCAM2-luc/T47D and NF-κB-luc/293 cells, respectively (Nelson et al., 2008 Blood 112, 5095-5102). Luciferase activity was quantified using the Bright-Glo Luciferase assay system (Promega, Madison, Wis.).

[4] = system: STAT5 and RNA polymerase II binding to CISH promoter; test: ChIP of STAT5 and pol II binding to the CISH promoter region in T47D cells; format: cell-based; settings: 1 hour pre-treatment, 30 minutes after prolactin (FIG. 3C)
Description: FIG. 3A-FIG. 3C is a series of photographs of blots and bar charts showing that fludrocortisone inhibits STAT5 transcriptional function without affecting its phosphorylation or genome binding. FIG. 3A is a photograph of a blot wherein T47D cells were pretreated with vehicle control or fludrocortisone for 1 hour after which prolactin was added. Cells were harvested at the indicated time point and immunoblotting was performed. FIG. 3B is a photograph of a blot wherein T47D cells were pretreated with vehicle, fludrocortisone, or Jak inhibitor 1 for 1 hour after which prolactin was added. Cells were collected 15 minutes after prolactin stimulation and cellular fractionation and immunoblotting was performed. […]
ChIP was performed as described (Nelson et al., 2004 J Biol Chem 279, 54724-54730). […] Quantitative PCR was performed in triplicate on ChIP product or input using SYBR Green PCR Master Mix (Applied Biosystems, Foster City, Calif.) and region-specific primers as follows: CISH, forward, 5′-CCCGCGGTTCTAGGAAGAC-3′ (SEQ ID NO: 1), reverse, 5′-CGAGCTGCTGCCTAATCCT-3′ (SEQ ID NO: 2); Rhodopsin, forward, 5′-[…]-3′ (SEQ ID NO: 3), reverse, 5′-[…]-3′ (SEQ ID NO: 4). Relative binding at the CISH promoter site was normalized to input and expressed as mean fold change relative to binding at the Rhodopsin site, which is a control DNA binding site known not to bind STAT5. […]

[5] = system: STAT5 target genes AREG and CISH; test: Expression of endogenous STAT5 target genes in breast cancer cell lines by quantitative RT-PCR; format: cell-based; settings: 1 hour pre-treatment; for expression of endogenous STAT5 target genes AREG and CISH: 1 μM, prolactin 100 ng/ml
Description: as §3
FIG. 2A-FIG. 2E is a series of bar graphs showing that the endogenous mineralocorticoid aldosterone inhibits STAT5 transcriptional function. FIG. 2A is a bar chart wherein T47D cells were transfected with an MCR-dependent luciferase reporter and a normalizing control, and normalized luciferase activity was determined after the indicated treatment. FIG. 2B is a bar chart wherein T47D cells transfected with an MCR-dependent luciferase reporter and a normalizing control were treated with the indicated dose of aldosterone, after which luciferase activity was determined. FIG. 2C is a bar chart wherein T47D-luc cells were pre-treated with the indicated concentration of aldosterone for 1 hour, then stimulated with prolactin (100 ng/ml) for 6 hours, after which luciferase activity was determined. […] Luciferase activity was quantified by luminometry six hours following prolactin stimulation. […]

STAT5 [6] = test: Immunoblot of STAT5 phosphorylation and nuclear localization in T47D cells after prolactin; format: cell-based; settings: for phosphorylation and nuclear localization of STAT5: 1 hour pre-treatment, 15 minutes after prolactin, cellular fractionation (FIG. 3B)
Description: FIG. 3A-FIG. 3C is a series of photographs of blots and bar charts showing that fludrocortisone inhibits STAT5 transcriptional function without affecting its phosphorylation or genome binding. FIG. 3A is a photograph of a blot wherein T47D cells were pretreated with vehicle control or fludrocortisone for 1 hour after which prolactin was added. Cells were harvested at the indicated time point and immunoblotting was performed. FIG. 3B is a photograph of a blot wherein T47D cells were pretreated with vehicle, fludrocortisone, or Jak inhibitor 1 for 1 hour after which prolactin was added. Cells were collected 15 minutes after prolactin stimulation and cellular fractionation and immunoblotting was performed. FIG. 3C is a photograph of a blot wherein T47D cells were pretreated with vehicle (DMSO) or fludrocortisone for 1 hour, then left untreated or stimulated with prolactin. 30 minutes later, cells were harvested and ChIP was performed to analyze STAT5 and pol II binding to the CISH promoter region. Error bars represent mean±SD for two independent experiments.
Nuclear and cytoplasmic fractionation was performed using the Nuclear Extract Kit (Active Motif, Carlsbad, Calif.). Immunoblots were performed using antibodies recognizing STAT5 (sc-482), MCR (sc-11412) and RNA polymerase II (pol II) (sc-9001) (all from Santa Cruz Biotechnology, Santa Cruz Calif.) and tyrosine-phosphorylated STAT5 (9131L) (from Cell Signaling Technology, Danvers, Mass.).
Next, it was considered whether fludrocortisone was inhibiting STAT5 function by blocking a key step in its activation. To address this, the effect of fludrocortisone on the kinetics of STAT5 phosphorylation following prolactin stimulation was evaluated. […] It was then evaluated whether nuclear translocation of activated STAT5 was affected by fludrocortisone treatment. T47D cells were either untreated or pretreated with fludrocortisone or JAK inhibitor 1, then left unstimulated or treated with prolactin, after which nuclear and cytoplasmic fractions were separated and analyzed for phosphorylated STAT5. […]

NF-κB = test: NF-κB-dependent luciferase reporter (NF-κB-luc/293 cells); format: cell-based; settings: concentrations up to 33 μM
Description: as §2, with “FIG. 1C is a series of bar charts wherein the indicated breast cancer cell lines were pre-treated with vehicle (dimethylsulfoxide (DMSO)) or fludrocortisone (1 μM) for 1 hour, then left untreated or stimulated with prolactin (100 ng/ml) to induce STAT5 activation.” left out, “18s.” for “18s. Error bars represent mean±SD for triplicates.”
as §4

STAT3 = test: STAT3-dependent luciferase reporter (STAT-luc/U3A cells); format: cell-based; settings: concentrations up to 33 μM
Description: as §2, with “FIG. 1C is a series of bar charts wherein the indicated breast cancer cell lines were pre-treated with vehicle (dimethylsulfoxide (DMSO)) or fludrocortisone (1 μM) for 1 hour, then left untreated or stimulated with prolactin (100 ng/ml) to induce STAT5 activation.” left out, “18s.” for “18s. Error bars represent mean±SD for triplicates.”
as §4

STAT5 [7] = test: STAT5 function (test not described)
[8] = T47D reporter cells, 1 μM (FIG. 2E)

## C[C@]12CCC(=O)C=C1CC[C@H]1[C@@H]3CC[C@](O)(C(=O)CO)[C@@]3(C)C[C@H](O)[C@@]12F [fludrocortisone, 9α-fluoro-11β,17α,21-trihydroxypregn-4-ene-3,20-dione]
STAT5 [1]
  induced or constitutive STAT5 activity: does not appear to inhibit
MCR
  activation of MCR, MCR-specific luciferase reporter: activate MCR
STAT5 [2]
  STAT5-dependent luciferase activity, B-luc (BCL6) promoter: reduced STAT5-dependent luciferase activity
  STAT5-dependent luciferase activity, NCAM-luc promoter: reduced STAT5-dependent luciferase activity
STAT5 [3]; Homo sapiens, T47D cells stably expressing STAT5-dependent luciferase reporter, prolactin 100 ng/ml, read-out: IC50, inhibition of STAT5-dependent luciferase activity
  IC50: ~100 nM
STAT5 [3]; [8]
  prolactin-stimulated STAT5 luciferase activity, compound added after prolactin: some inhibitory effect
  prolactin-stimulated STAT5 luciferase activity, compound added simultaneously with prolactin: still effectively inhibit
STAT1
  effect on STAT1-dependent luciferase expression: essentially no effect
[4]
  STAT5 binding to CISH regulatory site (ChIP): no effect
  prolactin-induced recruitment of RNA polymerase II (pol II) to CISH promoter site (ChIP): did inhibit
[5]; T47D cells
  expression of endogenous STAT5 target genes AREG and CISH: effectively inhibits
[5]; ZR75 cells
  expression of endogenous STAT5 target genes AREG and CISH: effectively inhibits
STAT5 [6]; 1 hour pre-treatment (FIG. 3A)
  dynamics of STAT5 activation (phosphorylation kinetics) following prolactin: no difference
STAT5 [6]
  phosphorylation and nuclear localization of STAT5: no effect
NF-κB
  effect on NF-κB-dependent luciferase expression: essentially no effect
STAT3
  effect on STAT3-dependent luciferase expression: essentially no effect

## CC(=O)S[C@@H]1CC2=CC(=O)CC[C@]2(C)[C@H]2CC[C@@]3(C)[C@@H](CC[C@@]34CCC(=O)O4)[C@H]12 [spironolactone]
STAT5 [7]
  STAT5 function: inhibit STAT5 function

## CC(C)(C)c1nc2c3cc[nH]c(=O)c3c3cc(F)ccc3c2[nH]1 [JAK inhibitor 1]
STAT5 [6]
  phosphorylation and nuclear localization of STAT5: complete inhibition

## C[C@]12CCC(=O)C=C1CC[C@@H]1[C@@H]2[C@@H](O)C[C@]2(C=O)[C@@H](C(=O)CO)CC[C@@H]12 [aldosterone]
MCR
  activation of MCR, MCR-specific luciferase reporter: activate MCR
MCR; T47D cells, indicated doses (FIG. 2B)
  dose dependence of MCR activation, MCR-dependent luciferase reporter: activates MCR in a dose-dependent manner
STAT5 [3]; T47D-luc cells, 1 hour pre-treatment, prolactin 100 ng/ml for 6 hours (FIG. 2C)
  inhibition of STAT5-dependent reporter gene, dose response: dose-dependent inhibition
[5]; T47D cells, 0.01 μM, prolactin 100 ng/ml (FIG. 2D)
  expression of endogenous STAT5 target genes: inhibited
